From patent US10975056B2 (GlaxoSmithKline Intellectual Property Development Limited, priority 2016, dated 2021)
Counter-ions that a name gives are not always drawn. Like-named read-outs stand apart in the source and are kept apart here.

Columns and labels:
[1] = test system: erythroid progenitor cells (EPCs); experiment: Fetal hemoglobin (HbF) ELISA in day 7 erythroid progenitor cells; format: cell-based, human; settings: Homo sapiens, Erythroid progenitor cell, HbF ELISA, day 7 EPCs, 5 days; read-out: EPC ELISA (pEC50 category) (converted);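 also: for fetal hemoglobin induction normalized to vehicle-treated cells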
In short: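 HbF induction was read by anti-HbF sandwich ELISA (HRP/TMB, OD450) on lysates and normalized to vehicle-treated cells. Cells were day 7 erythroid progenitors derived from human bone marrow CD34+ cells, seeded at 1,000/well with 3 U/mL rhEPO. Compound was given for 5 days at 37 °C at final concentrations […].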

DNMT1 = DNMT1 (Homo sapiens, UniProt P26358); experiment: DNMT1 biochemical activity, breaklight assay and/or SPA assay
[2] = binned activity in either the breaklight or the SPA assay
[3] = binned activity in either the breaklight or the SPA assay, read-out: DNMT1 BioChemical (pIC50 category) (converted)

Sequence of DNMT1 (P26358 whole entry, looked up): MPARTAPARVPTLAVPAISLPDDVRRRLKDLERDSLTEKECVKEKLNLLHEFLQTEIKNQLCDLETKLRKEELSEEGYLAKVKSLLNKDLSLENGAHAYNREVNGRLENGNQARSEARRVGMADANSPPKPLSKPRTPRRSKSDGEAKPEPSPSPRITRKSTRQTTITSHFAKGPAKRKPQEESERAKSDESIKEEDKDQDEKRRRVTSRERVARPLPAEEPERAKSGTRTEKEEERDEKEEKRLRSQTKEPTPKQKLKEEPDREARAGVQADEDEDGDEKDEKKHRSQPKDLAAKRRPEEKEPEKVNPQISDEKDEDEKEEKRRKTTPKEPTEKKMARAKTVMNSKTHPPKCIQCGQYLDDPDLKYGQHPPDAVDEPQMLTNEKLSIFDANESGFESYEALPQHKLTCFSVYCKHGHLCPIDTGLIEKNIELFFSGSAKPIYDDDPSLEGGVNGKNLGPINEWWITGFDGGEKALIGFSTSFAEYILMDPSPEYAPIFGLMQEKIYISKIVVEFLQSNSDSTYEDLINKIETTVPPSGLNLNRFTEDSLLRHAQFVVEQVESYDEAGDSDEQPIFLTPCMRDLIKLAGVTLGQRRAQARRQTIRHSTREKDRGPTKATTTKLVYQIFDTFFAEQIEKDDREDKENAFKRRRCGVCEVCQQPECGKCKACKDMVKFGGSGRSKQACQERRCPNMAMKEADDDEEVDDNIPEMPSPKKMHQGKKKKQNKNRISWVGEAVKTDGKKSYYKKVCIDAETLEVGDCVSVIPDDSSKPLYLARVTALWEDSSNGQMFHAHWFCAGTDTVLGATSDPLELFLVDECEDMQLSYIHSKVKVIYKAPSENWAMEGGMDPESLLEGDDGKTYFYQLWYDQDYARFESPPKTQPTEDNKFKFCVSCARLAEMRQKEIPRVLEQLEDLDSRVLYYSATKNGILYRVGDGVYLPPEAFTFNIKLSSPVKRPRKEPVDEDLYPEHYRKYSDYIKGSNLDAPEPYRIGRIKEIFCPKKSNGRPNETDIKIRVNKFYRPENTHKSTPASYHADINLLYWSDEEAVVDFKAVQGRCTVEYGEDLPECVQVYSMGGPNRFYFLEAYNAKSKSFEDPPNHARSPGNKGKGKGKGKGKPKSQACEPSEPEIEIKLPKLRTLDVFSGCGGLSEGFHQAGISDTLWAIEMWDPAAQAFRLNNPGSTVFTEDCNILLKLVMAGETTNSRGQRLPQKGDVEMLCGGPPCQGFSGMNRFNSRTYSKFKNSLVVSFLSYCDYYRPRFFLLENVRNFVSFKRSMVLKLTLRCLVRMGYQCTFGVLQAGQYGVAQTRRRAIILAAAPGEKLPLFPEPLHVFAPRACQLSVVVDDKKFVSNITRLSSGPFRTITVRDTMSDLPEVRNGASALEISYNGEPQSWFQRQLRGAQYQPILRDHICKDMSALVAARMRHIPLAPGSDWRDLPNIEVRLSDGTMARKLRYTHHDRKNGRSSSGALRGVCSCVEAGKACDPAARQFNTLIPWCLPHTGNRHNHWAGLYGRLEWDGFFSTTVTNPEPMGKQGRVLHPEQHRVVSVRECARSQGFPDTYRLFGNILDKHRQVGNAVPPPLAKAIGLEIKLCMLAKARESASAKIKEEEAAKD

EC50 [1] | DNMT1 BioChemical (pIC50 category) (DNMT1; [2]) | IC50 (DNMT1; [3]) | average pIC50 against DNMT1 (DNMT1; breaklight assay and/or SPA assay, repeated experimental runs) | IC50 (DNMT1; breaklight assay and/or SPA assay, repeated experimental runs, read-out: average pIC50 against DNMT1 (converted)) | Structure (SMILES)
< 316 nM | D (Category D: ≥6.5) | – | – | – | CCc1c(C#N)c(SC(C(N)=O)c2ccc(F)cc2)nc(N2CCC(N3CCCC3)CC2)c1C#N (stereo not drawn) [Example 505, 2-((3,5-dicyano-4-ethyl-6-(4-(pyrrolidin-1-yl)piperidin-1-yl)pyridin-2-yl)thio)-2-(4-fluorophenyl)acetamide]
< 316 nM | D (Category D: ≥6.5) | – | – | – | CCc1c(C#N)c(SC(C(N)=O)c2ccccc2)nc(N2CCC(NC)C(F)C2)c1C#N (stereo not drawn) [Example 507, 2((3,5-dicyano-4-ethyl-6-(3-fluoro-4-(methylamino)piperidin-1-yl)pyridin-2-yl)thio)-2-phenylacetamide]
< 316 nM | D (Category D: ≥6.5) | – | – | – | CCc1c(C#N)c(SC(C(N)=O)c2ccccc2)nc(N2CCC(NCCOC)C(F)C2)c1C#N (stereo not drawn) [Example 510, 2((3,5-dicyano-4-ethyl-6-(3-fluoro-4-((2-methoxyethyl)amino)piperidin-1-yl)pyridin-2-yl)thio)-2-phenylacetamide]
< 316 nM | D (Category D: ≥6.5) | – | – | – | CCc1c(C#N)c(SC(C(N)=O)c2ccccc2)nc(N(C)CCN(CC)CC)c1C#N (stereo not drawn) [Example 515, 2-((3,5-dicyano-6-((2-(diethylamino)ethyl)(methyl)amino)-4-ethylpyridin-2-yl)thio)-2-phenylacetamide]
< 316 nM | D (Category D: ≥6.5) | – | – | – | CCc1c(C#N)c(SC(C(N)=O)c2ccccc2)nc(N(C)CCN2CC[C@@H](N(C)C)C2)c1C#N (stereo partly drawn) [Example 516, 2-((3,5-dicyano-6-((2-((R)-3-(dimethylamino)pyrrolidin-1-yl)ethyl)(methyl)amino)-4-ethylpyridin-2-yl)thio)-2-phenylacetamide]
< 316 nM | D (Category D: ≥6.5) | – | – | – | CCc1c(C#N)c(SC(C(N)=O)c2ccccc2)nc(N(C)CCN2CC[C@H](N(C)C)C2)c1C#N (stereo partly drawn) [Example 517, 2-((3,5-dicyano-6-((2-((S)-3-(dimethylamino)pyrrolidin-1-yl)ethyl)(methyl)amino)-4-ethylpyridin-2-yl)thio)-2-phenylacetamide]
< 316 nM | D (Category D: ≥6.5) | – | – | – | CCc1c(C#N)c(SCc2ccc(CNC(=O)CN)cc2)nc(N(C)CCN(CC)CC)c1C#N [Example 520, 2-amino-N-(4-(((3,5-dicyano-6-((2-(diethylamino)ethyl)(methyl)amino)-4-ethylpyridin-2-yl)thio)methyl)benzyl)acetamide]
< 316 nM | D (Category D: ≥6.5) | – | – | – | CCc1c(C#N)c(SC(C(N)=O)c2ccccc2)nc(N2CCC(NC)C2)c1C#N (stereo not drawn) [Example 521, 2-((3,5-dicyano-4-ethyl-6-(3-(methylamino)pyrrolidin-1-yl)pyridin-2-yl)thio)-2-phenylacetamide]
< 316 nM | D (Category D: ≥6.5) | – | > 6.5 | 79.4 nM | CCc1c(C#N)c(S[C@@H](C(N)=O)c2ccccc2)nc(N2CC[C@@H](N)[C@H](O)C2)c1C#N [Example 523, (R)-2-((6-((3R,4R)-4-amino-3-hydroxypiperidin-1-yl)-3,5-dicyano-4-ethylpyridin-2-yl)thio)-2-phenylacetamide 2,2,2-trifluoroacetate*]
< 316 nM | D (Category D: ≥6.5) | – | – | – | CCc1c(C#N)c(SC(C(N)=O)c2ccccc2)nc(N2CC[C@@H](N)C2)c1C#N (stereo partly drawn) [Example 524, 2-((6-((R)-3-aminopyrrolidin-1-yl)-3,5-dicyano-4-ethylpyridin-2-yl)thio)-2-phenylacetamide]
< 316 nM | D (Category D: ≥6.5) | – | – | – | CCc1c(C#N)c(SC(C(N)=O)c2ccccc2)nc(N2CCC(NC3CC3)C(F)C2)c1C#N (stereo not drawn) [Example 527, 2-((3,5-dicyano-6-(4-(cyclopropylamino)-3-fluoropiperidin-1-yl)-4-ethylpyridin-2-yl)thio)-2-phenylacetamide]
316 to 1000 nM | D (Category D: ≥6.5) | – | – | – | CCc1c(C#N)c(SC(C(N)=O)c2ccccc2)nc(N(C)CCN2CC[C@@H](N)C2)c1C#N (stereo partly drawn) [Example 529, 2-((6-((2-((R)-3-aminopyrrolidin-1-yl)ethyl)(methyl)amino)-3,5-dicyano-4-ethylpyridin-2-yl)thio)-2-phenylacetamide]

The remaining lines, values behind:

Structure (SMILES) | EC50 [1] | DNMT1 BioChemical (pIC50 category) (DNMT1; [2]) | IC50 (DNMT1; [3]) | average pIC50 against DNMT1 (DNMT1; breaklight assay and/or SPA assay, repeated experimental runs) | IC50 (DNMT1; breaklight assay and/or SPA assay, repeated experimental runs, read-out: average pIC50 against DNMT1 (converted))
CCc1c(C#N)c(SC(C(N)=O)c2ccccc2)nc(N2CCC(N3CCOCC3)CC2)c1C#N (stereo not drawn) [Example 503, 2-((3,5-dicyano-4-ethyl-6-(4-morpholinopiperidin-1-yl)pyridin-2-yl)thio)-2-phenylacetamide] | 316 to 1000 nM | D (Category D: ≥6.5) | – | – | –
CCc1c(C#N)c(SC(C(N)=O)c2ccccc2)nc(N2CCN(CCO)C(=O)C2)c1C#N (stereo not drawn) [Example 504, 2-((3,5-dicyano-4-ethyl-6-(4-(2-hydroxyethyl)-3-oxopiperazin-1-yl)pyridin-2-yl)thio)-2-phenylacetamide] | 1000 to 31600 nM | D (Category D: ≥6.5) | – | – | –
CCc1c(C#N)c(S[C@@H](C(N)=O)c2ccccc2)nc(N2CC[C@@H](N)[C@@H](F)C2)c1C#N [Example 506, (R)-2-((6-((3S,4R)-4-amino-3-fluoropiperidin-1-yl)-3,5-dicyano-4-ethylpyridin-2-yl)thio)-2-phenylacetamide 2,2,2-trifluoroacetate] | < 316 nM | D (Category D: ≥6.5) | – | – | –
CCc1c(C#N)c(S[C@@H](C(N)=O)c2ccccc2)nc(N2CC[C@H](N)[C@H](F)C2)c1C#N [Example 509, (R)-2-((6-((3R,4S)-4-amino-3-fluoropiperidin-1-yl)-3,5-dicyano-4-ethylpyridin-2-yl)thio)-2-phenylacetamide • (0.67)2,2,2-trifluoroacetate • (0.33)methanesulfonate] | < 316 nM | D (Category D: ≥6.5) | – | – | –
CCc1c(C#N)c(SC(C(N)=O)c2ccccc2)nc(N(C)CCN2CCCC2)c1C#N (stereo not drawn) [Example 511, 2-((3,5-dicyano-4-ethyl-6-(methyl(2-(pyrrolidin-1-yl)ethyl)amino)pyridin-2-yl)thio)-2-phenylacetamide] | < 316 nM | D (Category D: ≥6.5) | – | – | –
CCc1c(C#N)c(SC(C(N)=O)c2ccccc2)nc(N2CCC(CN(C)C)C2)c1C#N (stereo not drawn) [Example 512, 2-((3,5-dicyano-6-(3-((dimethylamino)methyl)pyrrolidin-1-yl)-4-ethylpyridin-2-yl)thio)-2-phenylacetamide] | < 316 nM | D (Category D: ≥6.5) | – | – | –
CCc1c(C#N)c(SC(C(N)=O)c2ccc(F)cc2)nc(N2CCC(NCC(C)(C)O)CC2)c1C#N (stereo not drawn) [Example 513, 2-((3,5-dicyano-4-ethyl-6-(4-((2-hydroxy-2-methylpropyl)amino)piperidin-1-yl)pyridin-2-yl)thio)-2-(4-fluorophenyl)acetamide] | < 316 nM | – | < 316 nM | – | –
CCc1c(C#N)c(S[C@@H](C(N)=O)c2ccccc2)nc(N2CC[C@@H](N)[C@H](F)C2)c1C#N [Example 518, (R)-2-((6-((3R,4R)-4-amino-3-fluoropiperidin-1-yl)-3,5-dicyano-4-ethylpyridin-2-yl)thio)-2-phenylacetamide, Trifluoroacetic acid salt] | < 316 nM | D (Category D: ≥6.5) | – | – | –
CCc1c(C#N)c(S[C@@H](C(N)=O)c2ccccc2)nc(N2CC[C@H](N)[C@@H](F)C2)c1C#N [Example 519, (R)-2-((6-((3S,4S)-4-amino-3-fluoropiperidin-1-yl)-3,5-dicyano-4-ethylpyridin-2-yl)thio)-2-phenylacetamide, Trifluoroacetic acid salt] | < 316 nM | D (Category D: ≥6.5) | – | – | –
CCc1c(C#N)c(SC(C(N)=O)c2ccc(F)cc2)nc(N2CCC(N)CC2)c1C#N (stereo not drawn) [Example 522, 2-((6-(4-aminopiperidin-1-yl)-3,5-dicyano-4-ethylpyridin-2-yl)thio)-2-(4-fluorophenyl)acetamide hydrochloride] | < 316 nM | D (Category D: ≥6.5) | – | – | –
CCc1c(C#N)c(SC(C(N)=O)c2ccccc2)nc(N2CCC(CN)C2)c1C#N (stereo not drawn) [Example 525, 2-((6-(3-(aminomethyl)pyrrolidin-1-yl)-3,5-dicyano-4-ethylpyridin-2-yl)thio)-2-phenylacetamide] | < 316 nM | D (Category D: ≥6.5) | – | – | –
CCc1c(C#N)c(SC(C(N)=O)c2ccc(F)cc2)nc(N2CCC(NC)CC2)c1C#N (stereo not drawn) [Example 526, 2-((3,5-dicyano-4-ethyl-6-(4-(methylamino)piperidin-1-yl)pyridin-2-yl)thio)-2-(4-fluorophenyl)acetamide] | < 316 nM | – | < 316 nM | – | –
CCc1c(C#N)c(SC(C(N)=O)c2ccccc2)nc(N2CC[C@H](N)C2)c1C#N (stereo partly drawn) [Example 528, 2-((6-((S)-3-aminopyrrolidin-1-yl)-3,5-dicyano-4-ethylpyridin-2-yl)thio)-2-phenylacetamide] | < 316 nM | D (Category D: ≥6.5) | – | – | –
CCc1c(C#N)c(SC(C(N)=O)c2ccc(F)cc2)nc(N2CC[C@@H](N(C)C)C2)c1C#N (stereo partly drawn) [Example 530, 2-((3,5-dicyano-6-((R)-3-(dimethylamino)pyrrolidin-1-yl)-4-ethylpyridin-2-yl)thio)-2-(4-fluorophenyl)acetamide] | 1000 to 31600 nM | D (Category D: ≥6.5) | – | – | –
